Data as given in publication PMC7072451, “Membrane Binding of Neuronal Calcium Sensor-1: Highly Specific Interaction with Phosphatidylinositol-3-Phosphate” (Biomolecules, 2020).

Molecular target: T1, myristoylated NCS-1 (NCS-1^WT) (Homo sapiens, UniProt P62166)
T1 construct: gene NCS1; full-length, N-myristoylated by co-expressed yeast NMT in E. coli (pET22b+), sulfo-cyanine-3 maleimide labelled; unlabelled protein used as titrant
Test: fluorescence correlation spectroscopy, titration of PI liposomes with unlabelled protein
Format: binding
Details: Ca2+ present (1 mM CaCl2), pH 8.0, 100 mM NaCl; multilamellar liposomes of brain PI; concentration is of the protein; highly cooperative; sulfo-cyanine-3 labelled protein; read-out: dissociation constant

T1 sequence (P62166 2-190): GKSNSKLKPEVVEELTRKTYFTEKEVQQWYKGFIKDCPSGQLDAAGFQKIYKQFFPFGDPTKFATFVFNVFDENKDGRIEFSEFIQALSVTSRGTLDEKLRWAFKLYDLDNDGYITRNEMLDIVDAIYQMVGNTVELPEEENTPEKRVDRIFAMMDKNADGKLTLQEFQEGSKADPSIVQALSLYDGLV

- Kd: 3000 nM
Substance: phosphatidylinositol
